Earlier results, collected in US4971799A, “Percutaneous-administration-type pharmaceutical preparation of nitroglycerin” (Sekisui Kagaku Kogyo Kabushiki Kaisha, priority 1987, dated 1990).

Details: intravenous injection

## O=[N+]([O-])OCC(CO[N+](=O)[O-])O[N+](=O)[O-] [nitroglycerin]
  Duration of effects: effects are lost after a very short period of time
High blood level for a short period
  Side effects: headache, dizziness, orthostatic hypotension
